From publication PMC10085937 (Clinical Pharmacokinetics, 2023)
Entries after “also recorded” stand apart in the source; their conditions may differ. Where two headings read alike, the source gives them in different places.

Experiments:
[1] = format: in vivo, human; settings: for Effect of multiple-dose cilofexor on midazolam exposure (AUC and Cmax): midazolam 2 mg, vs midazolam alone; for Effect of multiple-dose cilofexor on pravastatin exposure (AUC and Cmax): pravastatin 40 mg; for Effect of multiple-dose cilofexor on pravastatin exposure (AUC and Cmax) / Effect of multiple-dose cilofexor on rosuvastatin exposure (AUC and Cmax): vs alone; for Effect of multiple-dose cilofexor on rosuvastatin exposure (AUC and Cmax): rosuvastatin 10 mg
[2] = dose range of 10 to 100 mg; cited from earlier work
NTCP = settings: in vitro; cited from earlier work
[3] = test system: organic cation transporter (OCT)2; settings: in vitro; cited from earlier work
CYP2C8 [4] = settings: in vitro; rCYP2C8 showing the fastest rate of metabolism; cited from earlier work
CYP3A [5] = settings: in vitro; cited from earlier work
OAT3 = settings: in vitro; cited from earlier work
[6] = test system: sodium taurocholate co-transporting polypeptide (NTCP); settings: in vitro; cited from earlier work
OATP1B3 [7] = settings: in vitro; ref data on file, Gilead Sciences, Inc.; cited from earlier work
[8] = cited from earlier work
CYP3A [9] = settings: in vitro; cited from earlier work; remark: listed apart in the source
[10] = format: in vivo, human; settings: for Effect of grapefruit juice on cilofexor exposure (AUC and Cmax): grapefruit juice 16 ounces; for Effect of grapefruit juice on cilofexor exposure (AUC and Cmax) / Effect of multiple-dose voriconazole on cilofexor exposure (AUC): vs cilofexor alone; for Effect of multiple-dose voriconazole on cilofexor exposure (AUC): voriconazole 200 mg BID
OATP2B1 [11] = settings: in vitro; cited from earlier work
MATE2-K = settings: in vitro; cited from earlier work
[12] = test system: organic anion transporter (OAT)1; settings: in vitro; cited from earlier work
P-glycoprotein (P-gp) = settings: in vitro; cited from earlier work
[13] = test system: breast cancer resistance protein (BCRP); settings: in vitro; cited from earlier work
bile salt export pump = settings: in vitro; cited from earlier work
[14] = cited from earlier work; remark: listed apart in the source
OATP2B1 [15] = settings: in vitro; ref data on file, Gilead Sciences, Inc.; cited from earlier work
OATP1B1 [16] = settings: in vitro; cited from earlier work
OATP1B1 [17] = settings: in vitro; ref data on file, Gilead Sciences, Inc.; cited from earlier work
CYP2C9 = settings: in vitro; cited from earlier work
BCRP = settings: in vitro; cited from earlier work
CYP2C19 = settings: in vitro; cited from earlier work
[18] = test system: multidrug and toxin extrusion protein (MATE) 1; settings: in vitro; cited from earlier work
CYP2C8 [19] = settings: in vitro; cited from earlier work
P-gp = settings: in vitro; cited from earlier work
OATP1B3 [20] = settings: in vitro; cited from earlier work
[21] = following multiple-dose rifampin 600 mg
[22] = with multiple-dose gemfibrozil 600 mg BID
[23] = with single-dose cyclosporine 600 mg
[24] = with single-dose rifampin 600 mg

In the case of `CC(C)c1c(C(=O)Nc2ccccc2O)c(-c2ccccc2)c(-c2ccc(F)cc2)n1CC[C@@H](O)C[C@@H](O)CC(=O)O` [o-OH-atorvastatin, o-hydroxyatorvastatin], the “o-OH-atorvastatin AUC and Cmax with multiple-dose cilofexor compared to atorvastatin alone” value ([1]; atorvastatin 10 mg) is reported as “similar”.
In the case of `Cc1ncc2n1-c1ccc(Cl)cc1C(c1ccccc1F)=NC2` [midazolam], the “Effect of multiple-dose cilofexor on midazolam exposure (AUC and Cmax)” value [1] is reported as “did not affect; also recorded: did not alter” and the “Effect of multiple-dose cilofexor on midazolam exposure (AUC and Cmax)” value ([1]; listed as Midazolam) is reported as “similar”.
For `CC[C@H](C)C(=O)O[C@H]1C[C@H](O)C=C2C=C[C@H](C)[C@H](CC[C@@H](O)C[C@@H](O)CC(=O)O)[C@H]21` [pravastatin], the “Effect of multiple-dose cilofexor on pravastatin exposure (AUC and Cmax)” value [1] was “did not affect; also recorded: did not alter” and the “Effect of multiple-dose cilofexor on pravastatin exposure (AUC and Cmax)” value ([1]; listed as Pravastatin) was “similar”.
For `O=C(O)c1ccnc(N2CC(O)(c3ccc(OCc4c(-c5c(Cl)cccc5Cl)noc4C4CC4)cc3Cl)C2)c1` [Cilofexor], the “Dose proportionality of plasma exposure” value [2] is given as “less than dose-proportional”, the “Inhibition of NTCP” value (NTCP) is given as “little to no inhibition” and the “Inhibition of OCT2” value [3] is given as “little to no inhibition”. For the same molecule, the “Substrate of CYP2C8” value (CYP2C8 [4]) was “substrate”, the Mechanism-based inhibition (CYP3A [5]) was “not a mechanism-based inhibitor” and the “Inhibition of OAT3” value (OAT3) was “little to no inhibition”. The “Substrate of NTCP” value [6] was “substrate”, the IC50 (OATP1B3 [7]) was 0.41 µM and the “Cilofexor dose eliminated in feces” value [8] was 96.7%. The “Dose remaining as intact cilofexor (feces)” value [8] was 34.1%, the “Substrate of CYP3A” value (CYP3A [9]) was “substrate” and the “Cilofexor AUC compared with cilofexor alone” value [10, 21] was 33%. The “Cilofexor Cmax compared with cilofexor alone” value [10, 21] was 35%, the “Effect of grapefruit juice on cilofexor exposure (AUC and Cmax)” value [10] was “similar” and the “Effect of grapefruit juice on cilofexor exposure (AUC and Cmax)” value ([10]; listed as cilofexor) was “did not affect”. The “Effect of multiple-dose voriconazole on cilofexor exposure (AUC)” value [10] was “similar”, the “Effect of multiple-dose voriconazole on cilofexor exposure (AUC)” value ([10]; listed as cilofexor) was “did not affect; also recorded: did not impact” and the “Cilofexor AUC compared with cilofexor alone” value [10, 22] was 175%. The “Cilofexor Cmax compared with cilofexor alone” value [10, 22] was 139%, the “Cilofexor Cmax lower than cilofexor alone” value ([10]; with multiple-dose voriconazole) was 23% and the “Median cilofexor t½ longer than cilofexor alone” value ([10]; with single-dose cyclosporine) was “approximately 2.5 fold”. For the same molecule, the “Cilofexor AUC compared with cilofexor alone” value [10, 23] was 651%, the “Cilofexor Cmax compared with cilofexor alone” value [10, 23] was 512% and the “Median cilofexor t½ longer than cilofexor alone” value ([10]; with single-dose rifampin) was “approximately 2.8 fold”. The “Cilofexor AUC compared with cilofexor alone” value [10, 24] was 795%, the “Cilofexor Cmax compared with cilofexor alone” value [10, 24] was 547% and the “Substrate of OATP2B1” value (OATP2B1 [11]) was “substrate”. For the same molecule, the “Inhibition of MATE2-K” value (MATE2-K) was “little to no inhibition”, the “Inhibition of OAT1” value [12] was “little to no inhibition” and the “Substrate of P-gp” value (P-glycoprotein (P-gp)) was “substrate”. For the same molecule, the “Substrate of BCRP” value [13] was “substrate”, the “Inhibition of bile salt export pump” value (bile salt export pump) was “little to no inhibition” and the “Protein binding in human plasma” value [14] was over 99%. The IC50 (OATP2B1 [15]) was 0.21 µM, the “Substrate of OATP1B1” value (OATP1B1 [16]) was “substrate” and the IC50 (OATP1B1 [17]) was 0.68 µM. The Mechanism-based inhibition (CYP2C9) was “not a mechanism-based inhibitor”, the “Inhibition of BCRP” value (BCRP) was “little to no inhibition” and the “Substrate of CYP2C19” value (CYP2C19) was “substrate”. For the same molecule, the “Inhibition of MATE1” value [18] was “little to no inhibition”, the Mechanism-based inhibition (CYP2C8 [19]) was “not a mechanism-based inhibitor” and the “Inhibition of P-gp” value (P-gp) was “little to no inhibition”. The “Substrate of OATP1B3” value (OATP1B3 [20]) was “substrate”.
For `CC(C)c1nc(N(C)S(C)(=O)=O)nc(-c2ccc(F)cc2)c1/C=C/[C@@H](O)C[C@@H](O)CC(=O)O` [rosuvastatin], the “Effect of multiple-dose cilofexor on rosuvastatin exposure (AUC and Cmax)” value [1] was “did not alter” and the “Effect of multiple-dose cilofexor on rosuvastatin exposure (AUC and Cmax)” value ([1]; listed as Rosuvastatin) was “similar”.
